Drawing on US8431556B2, “C-21-keto lupane derivatives preparation and use thereof” (Vertex Pharmaceuticals Incorporated, priority 2008, dated 2013), this text covers IC50 for 23 compounds.

As a reminder, the pIC50 is the negative decadic logarithm of the IC50, by convention in mol/L.

Each structure is given as a SMILES string. pIC50: −log10 of the molar value. Bounds are passed on as bounds.

The subject of one assay is HIV-1 (HIVIIIB). In words: HIV-1 replication in MT2 cell line with and without 30% human serum (viral RT activity in supernatant). The assay is classed as cell-based. The following applies: Human immunodeficiency virus 1, MT2, MT-2 cells, with 30% human serum, average IC50 if tested more than once, read-out: MT-2 (HIVIIIB) with 30% HS IC50 range. As to the method: HIV-1 Replication in MT2 cell line with and without 30% human serum: The cells are infected at a Multiciplicity of Infection (MOI) of 0.5 for 3 h and then washed twice with complete media to remove residual virus. Cells are then resuspended at 0.5×10^6/ml in complete medium (RPMI, 10% FBS, 1% sodium pyruvate), and seeded into 96-well plates (6.25×10^4/well). The cells are cultured in the presence or absence of various concentrations of test compounds in serial dilutions for 3 days at 37° C. The test compounds are serially diluted in complete medium supplemented or not with 30% human serum. After 3 days, 100 μL of cultured medium with cells are replaced with 120 μL of freshly diluted test compounds in complete medium containing or not 30% Human serum. The level of HIV-1 replication is determined at days 5 after infection by the presence of viral RT activity in harvested supernatant fluid. The IC50 and IC90 values for the virus replication are determined by using GRAPHPAD PRISM software.
The IC50 of the compounds tested in accordance with the HIV replication activity assay MT-2 (HIVIIIB) are represented in Table 4 (without HS) and Table 5 (with 30% HS)
Consider `CC(C)C1=C2[C@H]3CC[C@@H]4[C@@]5(C)CC[C@H](OC(=O)CC(C)(C)C(=O)O)C(C)(C)[C@@H]5CC[C@@]4(C)[C@]3(C)CC[C@@]2(C(=O)N2CCNCC2)CC1=O` [9-28, 3β-O-(3′,3′-Dimethylsuccinyl)-21-oxolup-18-en-28-oic acid N-piperazinyl-acetamide], for which the negative logarithm of the IC50 (pIC50) is above 6.70.
On to `COC(=O)NCCNC(=O)[C@@]12CC[C@]3(C)[C@H](CC[C@@H]4[C@@]5(C)CC[C@H](OC(=O)CC(C)(C)C(=O)O)C(C)(C)[C@@H]5CC[C@]43C)C1=C(C(C)C)C(=O)C2` [9-24, 3β-O-(3′,3′-Dimethylsuccinyl)-21-oxolup-18-en-28-oic acid N-(2-acetylamino-ethyl)-carbamic acid methyl ester], for which the negative logarithm of the IC50 (pIC50) is above 6.70.
Take `CC(C)C1=C2[C@H]3CC[C@@H]4[C@@]5(C)CC[C@H](OC(=O)CC(C)(C)C(=O)O)C(C)(C)[C@@H]5CC[C@@]4(C)[C@]3(C)CC[C@@]2(C(=O)Nc2ccccc2)CC1=O` [9-10, 3β-O-(3′,3′-Dimethylsuccinyl)-21-oxolup-18-en-28-oic acid N-benzamide]: the pIC50 is above 6.70.
Turning to `CC(C)C1=C2C3CCC4[C@@]5(C)CC[C@H](OC(=O)CC(C)(C)C(=O)O)C(C)(C)C5CC[C@@]4(C)[C@]3(C)CC[C@@]2(C(=O)NC[C@H]2CCCN2C)CC1=O` (stereo partly drawn) [9-83, 3β-O-(3′,3′-Dimethylsuccinyl)-21-oxolup-18-en-28-oic acid N-((R)-1-methyl-pyrrolidin-2-ylmethyl)-acetamide], the negative-log IC50 (pIC50) was above 6.70.
Same read-out and setting: for `CC(C)C1=C2C3CCC4[C@@]5(C)CC[C@H](OC(=O)CC(C)(C)C(=O)O)C(C)(C)C5CC[C@@]4(C)[C@]3(C)CC[C@@]2(C(=O)NC(C)(C)C(F)(F)F)CC1=O` (stereo partly drawn) [9-77, 3β-O-(3′,3′-Dimethylsuccinyl)-21-oxolup-18-en-28-oic acid N-(2,2,2-trifluoro-1,1-dimethyl-ethyl)-acetamide] the value was above 6.70; for `CC(C)C1=C2[C@H]3CC[C@@H]4[C@@]5(C)CC[C@H](OC(=O)CC(C)(C)C(=O)O)C(C)(C)[C@@H]5CC[C@@]4(C)[C@]3(C)CC[C@@]2(C(=O)NCCN)CC1=O` [9-21, 3β-O-(3′,3′-Dimethylsuccinyl)-21-oxolup-18-en-28-oic acid N-(2-amino-ethyl)-acetamide], above 6.70; for `CC(C)C1=C2[C@H]3CC[C@@H]4[C@@]5(C)CC[C@H](OC(=O)CC(C)(C)C(=O)O)C(C)(C)[C@@H]5CC[C@@]4(C)[C@]3(C)CC[C@@]2(C(=O)NCc2ccccc2Cl)CC1=O` [9-12, 3β-O-(3′,3′-Dimethylsuccinyl)-21-oxolup-18-en-28-oic acid N-2-chloro-benzylamide], above 6.70.
Still for that read-out and setting: for `Cc1nnc(NC(=O)[C@@]23CC[C@]4(C)[C@H](CC[C@@H]5[C@@]6(C)CC[C@H](OC(=O)CC(C)(C)C(=O)O)C(C)(C)[C@@H]6CC[C@]54C)C2=C(C(C)C)C(=O)C3)o1` [9-62, 3β-O-(3′,3′-Dimethylsuccinyl)-21-oxolup-18-en-28-oic acid N-(5-methyl-[1,3,4]oxadiazol-2-yl)-acetamide] the value was 6.00 to 6.70.
Still for that read-out and setting: the result for `CC(C)C1=C2[C@H]3CC[C@@H]4[C@@]5(C)CC[C@H](OC(=O)CC(C)(C)C(=O)O)C(C)(C)[C@@H]5CC[C@@]4(C)[C@]3(C)CC[C@@]2(C(=O)NCCN2CCCC2)CC1=O` [9-61, 3β-O-(3′,3′-Dimethylsuccinyl)-21-oxolup-18-en-28-oic acid N-(2-pyrrolidin-1-yl-ethyl)-acetamide] reads above 6.70.
Regarding `CC(C)C1=C2C3CCC4[C@@]5(C)CC[C@H](OC(=O)CC(C)(C)C(=O)O)C(C)(C)C5CC[C@@]4(C)[C@]3(C)CC[C@@]2(C(=O)NC[C@@H]2CCCN2)CC1=O` (stereo partly drawn) [9-82, 3β-O-(3′,3′-Dimethylsuccinyl)-21-oxolup-18-en-28-oic acid N-((S)-1-pyrrolidin-2-ylmethyl)-acetamide], the pIC50 was above 6.70.
Consider `Cc1cc(NC(=O)[C@@]23CC[C@]4(C)C(CCC5[C@@]6(C)CC[C@H](OC(=O)CC(C)(C)C(=O)O)C(C)(C)C6CC[C@]54C)C2=C(C(C)C)C(=O)C3)no1` (stereo partly drawn) [9-91, 3β-O-(3′,3′-Dimethylsuccinyl)-21-oxolup-18-en-28-oic acid N-(5-methyl-isoxazol-3-yl)-acetamide], for which the negative logarithm of the IC50 (pIC50) was above 6.70.
The same measure, in the same setting: the result for `CC(C)C1=C2C3CCC4[C@@]5(C)CC[C@H](OC(=O)CC(C)(C)C(=O)O)C(C)(C)C5CC[C@@]4(C)[C@]3(C)CC[C@@]2(C(=O)Nc2ccccc2C(C)C)CC1=O` (stereo partly drawn) [9-87, 3β-O-(3′,3′-Dimethylsuccinyl)-21-oxolup-18-en-28-oic acid N-2-isopropyl-phen-1-yl acetamide] reads 6.00 to 6.70; that for `CC(C)C1=C2[C@H]3CC[C@@H]4[C@@]5(C)CC[C@H](OC(=O)CC(C)(C)C(=O)O)C(C)(C)[C@@H]5CC[C@@]4(C)[C@]3(C)CC[C@@]2(C(=O)NCc2ccc(Cl)cc2)CC1=O` [9-14, 3β-O-(3′,3′-Dimethylsuccinyl)-21-oxolup-18-en-28-oic acid N-4-chloro-benzylamide], above 6.70.
Same read-out and setting: for `CC(C)C1=C2[C@H]3CC[C@@H]4[C@@]5(C)CC[C@H](OC(=O)CC(C)(C)C(=O)O)C(C)(C)[C@@H]5CC[C@@]4(C)[C@]3(C)CC[C@@]2(C(=O)Nc2cnn(C)c2)CC1=O` [9-57, 3β-O-(3′,3′-Dimethylsuccinyl)-21-oxolup-18-en-28-oic acid N-4-amino-1-methyl-1H-pyrazole acetamide] the value was above 6.70; for `CC(C)C1=C2[C@H]3CC[C@@H]4[C@@]5(C)CC[C@H](OC(=O)CC(C)(C)C(=O)O)C(C)(C)[C@@H]5CC[C@@]4(C)[C@]3(C)CC[C@@]2(C(=O)NC(C)(C)c2ccccc2)CC1=O` [9-34, 3β-O-(3′,3′-Dimethylsuccinyl)-21-oxolup-18-en-28-oic acid N-(1-methyl-1-phenyl-ethyl)-acetamide], above 6.70; for `CC(C)C1=C2C3CCC4[C@@]5(C)CC[C@H](OC(=O)CC(C)(C)C(=O)O)C(C)(C)C5CC[C@@]4(C)[C@]3(C)CC[C@@]2(C(=O)NC[C@H]2CCCN2C(=O)OC(C)(C)C)CC1=O` (stereo partly drawn) [9-79, 3β-O-(3′,3′-Dimethylsuccinyl)-21-oxolup-18-en-28-oic acid N-(R)-2-acetylaminomethyl-pyrrolidine-1-carboxylic acid tert-butyl ester], above 6.70.
Same read-out and setting: the result for `CC(C)C1=C2[C@H]3CC[C@@H]4[C@@]5(C)CC[C@H](OC(=O)CC(C)(C)C(=O)O)C(C)(C)[C@@H]5CC[C@@]4(C)[C@]3(C)CC[C@@]2(C(=O)NCC2CC2)CC1=O` [9-69, 3β-O-(3′,3′-Dimethylsuccinyl)-21-oxolup-18-en-28-oic acid N-cyclopropylmethyl acetamide] reads above 6.70; that for `CC(C)C1=C2[C@H]3CC[C@@H]4[C@@]5(C)CC[C@H](OC(=O)CC(C)(C)C(=O)O)C(C)(C)[C@@H]5CC[C@@]4(C)[C@]3(C)CC[C@@]2(C(=O)NCc2ccncc2)CC1=O` [9-18, 3β-O-(3′,3′-Dimethylsuccinyl)-21-oxolup-18-en-28-oic acid N-pyridin-4-ylmethylamide], above 6.70.
Regarding `CC(C)C1=C2[C@H]3CC[C@@H]4[C@@]5(C)CC[C@H](OC(=O)CC(C)(C)C(=O)O)C(C)(C)[C@@H]5CC[C@@]4(C)[C@]3(C)CC[C@@]2(C(=O)NCCNC(=O)OC(C)(C)C)CC1=O` [9-20, 3β-O-(3′,3′-Dimethylsuccinyl)-21-oxolup-18-en-28-oic acid N-(2-acetylamino-ethyl)-carbamic acid tert-butyl ester], the pIC50 was above 6.70.
On the same count and under the same terms, for `CC(C)C1=C2[C@H]3CC[C@@H]4[C@@]5(C)CC[C@H](OC(=O)CC(C)(C)C(=O)O)C(C)(C)[C@@H]5CC[C@@]4(C)[C@]3(C)CC[C@@]2(C(=O)N2C3CCC2CN(C(=O)c2ccccc2)C3)CC1=O` [9-36, 3β-O-(3′,3′-Dimethylsuccinyl)-21-oxolup-18-en-28-oic acid N-(8-amino-3,8-diaza-bicyclo[3.2.1]octane-3-benzamide)-acetamide] the value was above 6.70.

Still in this assay, the particulars now being: Human immunodeficiency virus 1, MT2, MT-2 cells, without HS, average IC50 if tested more than once, read-out: MT-2 (HIVIIIB) IC50 range.
For the compound `CC(C)NC(=O)[C@@]12CC[C@]3(C)[C@H](CC[C@@H]4[C@@]5(C)CC[C@H](OC(=O)CC(C)(C)C(=O)O)C(C)(C)[C@@H]5CC[C@]43C)C1=C(C(C)C)C(=O)C2` [9-3, 3β-O-(3′,3′-Dimethylsuccinyl)-21-oxolup-18-en-28-oic acid N-isopropylamide], the negative-log IC50 (pIC50) is above 6.70.
With `CC(C)C1=C2[C@H]3CC[C@@H]4[C@@]5(C)CC[C@H](OC(=O)CC(C)(C)C(=O)O)C(C)(C)[C@@H]5CC[C@@]4(C)[C@]3(C)CC[C@@]2(C(=O)NC2CCCCC2)CC1=O` [9-4, 3β-O-(3′,3′-Dimethylsuccinyl)-21-oxolup-18-en-28-oic acid N-cyclohexylamide], the pIC50 is above 6.70.
Regarding `CC(C)C1=C2[C@H]3CC[C@@H]4[C@@]5(C)CC[C@H](OC(=O)CC(C)(C)C(=O)O)C(C)(C)[C@@H]5CC[C@@]4(C)[C@]3(C)CC[C@@]2(C(=O)NCc2ccccc2)CC1=O` [9-1, 3β-O-(3′,3′-Dimethylsuccinyl)-21-oxolup-18-en-28-oic acid N-benzylamide], the pIC50 was above 6.70.
